# From patent US20020010154A1, “Compositions comprising cyclodextrin” (priority 2000, published 2002)
# Counter-ions that a name gives are not always drawn.
# Experiments:
# [1] = CD interaction of perfume components; assay type: physicochemical; parameters: key: cyclodextrin-compatible perfume materials (i.e. having weak CD interaction); cyclodextrin-incompatible enduring (hydrophobic) perfume materials (i.e. having significant or strong CD interaction); cyclodextrin-incompatible enduring (hydrophobic) perfume materials (i.e. having significant or strong CD interaction); conditions: perfume component with cyclodextrin
# Source text: The following table illustrates the molecular weight property of some of the cyclodextrin-incompatible enduring (hydrophobic) perfume materials (i.e. having significant or strong CD interaction) versus cyclodextrin-compatible perfume materials (i.e. having weak CD interaction).
# [2] = Complexation constant with cyclodextrin, spectral displacement method with phenolphthalein; assay type: physicochemical; conditions: no unit in table, complexation constants in M^−1
# Source text: A spectral displacement method with phenolphthalein is used to determine the complexation constant between cyclodextrin and a given material, especially for surfactants. This method of determining complexation constants with cyclodextrins is described in detail in the following references, which are hereby incorporated herein by reference: Sasaki, K. J., Christian, S. D., and Tucker, E. E., “Study of the Stability of 1:1 Complexes Between Aliphatic Alcohols and b-Cyclodextrins in Aqueous Solution,” Fluid Phase Equilibria, Vol. 49, (Amsterdam, Elsevier Science Publishers, 1989), pp. 281-89. Further information regarding spectral displacement methods can be found in other references, e.g. in Wilson, L. D., Siddall, S. R., and Verrall R. E., “A Spectral Displacement Study of the Binding Constants of Cyclodextrin-Hydrocarbon and—Fluorocarbon Surfactant Inclusion Complexes,” Canadian Journal of Chemistry, Vol. 75, (NRC Canada 1997), pp. 927-933, which is incorporated by reference herein.
# The test method is based on the fact that phenolphthalein will complex with cyclodextrin and in complexed form is colorless. However, it has a strong color at pH 10.5 when in non-complexed form. Other, cyclodextrin-incompatible, materials themselves complex with the cyclodextrin and prevent the phenolphthalein from doing so. Thus the higher the complexation constant of the other component with cyclodextrin, the more non-complexed phenolphthalein will be present and the stronger the observed color.
# The complexation constant of a given material with cyclodextrin is obtained by an absorbance measurement in the visible region at 550 nm that is performed with a spectrophotometer at room temperature. All solutions are prepared in 4.0×10^−3 mol/l Na2CO3 solution to maintain a constant pH. The concentration of phenolphthalein is kept constant at 3.0×10^−5 mol/l. Cyclodextrin concentration and surfactant concentration are varied. Here, optimum parameter values for absorption coefficient of phenolphthalein at 550 nm is 33,000 M^−1 cm^−1, and the complexation constants of phenolphthalein with cyclodextrin and cyclodextrin derivatives are preliminary obtained. […] Complexation constants of cyclodextrin-compatible and/or cyclodextrin-incompatible materials are determined with using the free, uncomplexed phenolphthalein concentration obtained by absorbance at 550 nm.
# [3] = cited from earlier work
# [4] = Complexation constant of phenolphthalein with beta-cyclodextrin (absorbance at 550 nm); assay type: physicochemical; conditions: room temperature, 4.0×10^−3 mol/l Na2CO3, pH 10.5
# Source text: A spectral displacement method with phenolphthalein is used to determine the complexation constant between cyclodextrin and a given material, especially for surfactants. This method of determining complexation constants with cyclodextrins is described in detail in the following references, which are hereby incorporated herein by reference: Sasaki, K. J., Christian, S. D., and Tucker, E. E., “Study of the Stability of 1:1 Complexes Between Aliphatic Alcohols and b-Cyclodextrins in Aqueous Solution,” Fluid Phase Equilibria, Vol. 49, (Amsterdam, Elsevier Science Publishers, 1989), pp. 281-89. Further information regarding spectral displacement methods can be found in other references, e.g. in Wilson, L. D., Siddall, S. R., and Verrall R. E., “A Spectral Displacement Study of the Binding Constants of Cyclodextrin-Hydrocarbon and—Fluorocarbon Surfactant Inclusion Complexes,” Canadian Journal of Chemistry, Vol. 75, (NRC Canada 1997), pp. 927-933, which is incorporated by reference herein. […]
# The complexation constant of a given material with cyclodextrin is obtained by an absorbance measurement in the visible region at 550 nm that is performed with a spectrophotometer at room temperature. […] Complexation constants of cyclodextrin-compatible and/or cyclodextrin-incompatible materials are determined with using the free, uncomplexed phenolphthalein concentration obtained by absorbance at 550 nm.
Compound,CD interaction [1],also measured
CC(C=O)Cc1ccc(C(C)C)cc1 (centres unmarked) [Cymal],strong,–
CCOC(=O)c1ccccc1C(=O)OCC [Diethyl Phthalate],weak,–
CC(=O)OC1CC2CC1C1CC=CC21 (centres unmarked) [Flor Acetate],strong,–
CCC(=O)OC1CC2CC1C1CC=CC21 (centres unmarked) [Frutene],strong,–
CC1COCc2cc3c(cc21)C(C)(C)C(C)C3(C)C (centres unmarked) [Galaxolide],weak,–
CCCCCCOC(=O)c1ccccc1O [Hexyl Salicylate],weak,–
CCCCCCC(C=O)=Cc1ccccc1 [Hexyl cinnamic Aldehyde],weak,–
CC(=O)C1(C)CC2=C(CCCC2(C)C)CC1C (centres unmarked) [Iso-E Super],weak,–
CCCCCCCCCCCCCC(=O)OC(C)C [Iso-propyl Myristate],weak,–
CC(=O)C(C)=C(C)C(C)C(C)(C)C (centres unmarked) [Koavone],strong,–
"CC(C=O)Cc1ccc(C(C)(C)C)cc1 (centres unmarked) [Lilial, p-t-bucinal]",strong,–
CC(C)(O)CCCC1=CCC(C=O)CC1 (centres unmarked) [Lyral],weak,–
CCCCCC1C(=O)CCC1CC(=O)OC (centres unmarked) [Methyl Dihydro Jasmonate],weak,–
O=C(Cc1ccccc1)OCCc1ccccc1 [Phenyl-Ethyl-Phenyl Acetate],weak,–
CCCCCCCCCCCCOS(=O)(=O)[O-].[Na+] [Sodium dodecyl sulfate],–,Complexation Constant (K) [2]: about 22000
CCCCCCCCCCCC(=O)[O-].[Na+] [Sodium laurate],–,Complexation Constant (K) [2]: about 16000
CC(=O)OC(C)(C)C1CC=C(C)CC1 (centres unmarked) [Terpinyl Acetate],significant,–
CCC(C)(O)CCCC(C)C (centres unmarked) [Tetrahydrolinalol],significant,–
"CC(=O)OC1CCC(C(C)(C)C)CC1 (centres unmarked) [Vertenex, para-tert-butylcyclohexyl acetate]",strong,–
CC(=O)/C=C/C1C(C)=CCCC1(C)C (centres unmarked) [a-ionone],strong,–
"[H]/N=C(\N/C(=N/[H])NCCCCCCNC(=N)NC(=N)Nc1ccc(Cl)cc1)Nc1ccc(Cl)cc1 [diacetate salt, 1,1′-hexamethylene bis(5-(p-chlorophenyl)biguanide)]",–,solubility in water [3]: about 1.8%
"[H]/N=C(\N/C(=N/[H])NCCCCCCNC(=N)NC(=N)Nc1ccc(Cl)cc1)Nc1ccc(Cl)cc1 [digluconate salt, 1,1′-hexamethylene bis(5-(p-chlorophenyl)biguanide)]",–,solubility in water [3]: about 70%
O=C1OC(c2ccc(O)cc2)(c2ccc(O)cc2)c2ccccc21 [phenolphthalein],–,"complexation constant of phenolphthalein with beta-cyclodextrin [4]: about 21,000 M^−1"
Lauramine oxide,–,Complexation Constant (K) [2]: about 7500
Laureth-6,–,Complexation Constant (K) [2]: about 10000
a-Me Ionone,strong,–
